The results in this text go back to ChEMBL document CHEMBL4602647, “Protective effects of 10,11-dihydro-5H-dibenzo[b,f]azepine hydroxamates on vascular cognitive impairment” (Eur J Med Chem, 2020).

One experiment deals with Histone deacetylase 2 (Homo sapiens, UniProt Q92769). The experiment can be described thus: Inhibition of recombinant human C-terminal GST-tagged HDAC2 (1 to 488 residues) expressed in baculovirus infected sf21 cells using RHK-K(Ac)-AMC as substrate after 60 mins by fluorimetry assay.
In the next experiment the target is T1, Histone deacetylase 8 (Homo sapiens, UniProt Q9BY41).
T1 sequence (Q9BY41 whole entry): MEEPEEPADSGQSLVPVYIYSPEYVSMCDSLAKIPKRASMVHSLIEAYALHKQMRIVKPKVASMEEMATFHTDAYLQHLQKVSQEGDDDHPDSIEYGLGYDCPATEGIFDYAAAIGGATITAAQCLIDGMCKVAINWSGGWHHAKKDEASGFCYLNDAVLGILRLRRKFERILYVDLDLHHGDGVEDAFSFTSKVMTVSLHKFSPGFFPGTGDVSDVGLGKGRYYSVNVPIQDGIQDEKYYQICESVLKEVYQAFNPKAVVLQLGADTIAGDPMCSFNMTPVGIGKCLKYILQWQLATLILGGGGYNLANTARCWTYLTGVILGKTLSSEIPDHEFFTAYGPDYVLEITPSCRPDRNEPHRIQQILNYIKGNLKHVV
The experiment can be described thus: Inhibition of recombinant C-terminal His-tagged and N-terminal Streptavidin2-tagged human HDAC8 (1 to 377 residues) expressed in baculovirus infected insect cells using RHK-K(Ac)-AMC as substrate after 60 mins by fluorescence assay.

Experiment [1] has as its target T2, Protein deacetylase HDAC6 (Homo sapiens, UniProt Q9UBN7).
T2 sequence (Q9UBN7 whole entry): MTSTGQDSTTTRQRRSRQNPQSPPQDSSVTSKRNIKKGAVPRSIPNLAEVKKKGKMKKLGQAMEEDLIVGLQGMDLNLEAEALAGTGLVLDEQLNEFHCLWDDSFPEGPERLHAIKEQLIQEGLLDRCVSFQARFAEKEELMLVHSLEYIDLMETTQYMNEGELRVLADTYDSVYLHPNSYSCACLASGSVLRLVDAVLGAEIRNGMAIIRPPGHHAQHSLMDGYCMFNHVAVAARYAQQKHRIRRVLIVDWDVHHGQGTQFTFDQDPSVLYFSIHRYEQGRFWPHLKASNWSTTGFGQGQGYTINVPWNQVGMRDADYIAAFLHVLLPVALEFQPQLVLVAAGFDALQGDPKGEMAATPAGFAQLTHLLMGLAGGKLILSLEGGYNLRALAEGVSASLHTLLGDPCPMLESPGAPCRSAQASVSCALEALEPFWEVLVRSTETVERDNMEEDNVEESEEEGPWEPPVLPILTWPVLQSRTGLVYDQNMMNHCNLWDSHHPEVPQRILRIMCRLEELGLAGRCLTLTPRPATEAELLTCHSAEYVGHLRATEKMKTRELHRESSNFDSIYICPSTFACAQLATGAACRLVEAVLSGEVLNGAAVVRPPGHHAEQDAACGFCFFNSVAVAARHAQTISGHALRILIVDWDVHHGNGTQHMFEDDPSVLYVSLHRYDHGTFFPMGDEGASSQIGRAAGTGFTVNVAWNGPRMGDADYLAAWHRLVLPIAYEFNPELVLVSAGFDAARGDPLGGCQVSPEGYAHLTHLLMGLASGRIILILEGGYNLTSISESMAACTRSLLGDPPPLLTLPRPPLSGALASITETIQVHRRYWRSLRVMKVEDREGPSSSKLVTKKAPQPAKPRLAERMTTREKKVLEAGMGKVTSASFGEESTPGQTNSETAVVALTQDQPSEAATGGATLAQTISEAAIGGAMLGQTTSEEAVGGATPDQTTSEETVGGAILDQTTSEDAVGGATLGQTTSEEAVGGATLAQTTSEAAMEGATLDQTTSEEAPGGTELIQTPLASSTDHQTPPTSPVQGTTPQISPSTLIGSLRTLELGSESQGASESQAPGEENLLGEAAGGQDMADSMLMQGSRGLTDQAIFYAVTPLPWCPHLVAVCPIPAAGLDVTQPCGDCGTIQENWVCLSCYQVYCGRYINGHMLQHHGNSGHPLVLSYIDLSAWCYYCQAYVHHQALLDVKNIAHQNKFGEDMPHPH
The experiment can be described thus: Inhibition of recombinant human N-terminal GST-tagged HDAC6 (1 to 1215 residues) expressed in baculovirus infected insect cells using RHK-K(Ac)-AMC as substrate after 90 mins by fluorimetry analysis.

The target in the next experiment is Histone deacetylase 1 (Homo sapiens, UniProt Q13547). Put plainly: Inhibition of recombinant full length human C-terminal FLAG/His-tagged HDAC1 (1 to 482 residues) expressed in baculovirus infected Sf21 cells using RHK-K(Ac)-AMC as substrate measured after 60 mins by fluorimetric assay.
Experiment [2] deals with SH-SY5Y. Put plainly: Neuroprotective activity against OGD-induced hypoxic injury in human SH-SY5Y cells assessed as LDH release at 5 uM incubated under oxygen/glucose deprivation-induced hypoxic medium by LDH assay (reference value: 27.47 +/- 3.23 %). Format: functional. (In general: LDH leaks from cells whose membrane has failed.)
Experiment [3] concerns SH-SY5Y. Put plainly: Neuroprotective activity against OGD-induced hypoxic injury in human SH-SY5Y cells assessed as LDH release at 10 uM incubated under oxygen/glucose deprivation-induced hypoxic medium by LDH assay (reference value: 27.47 +/- 3.23 %). The class given is functional.
Experiment [4] deals with SH-SY5Y. Put plainly: Neuroprotective activity against OGD-induced hypoxic injury in human SH-SY5Y cells assessed as LDH release at 1 nM to 10 uM incubated under oxygen/glucose deprivation-induced hypoxic medium by LDH assay. Format: functional, cell-based.
Experiment [5] has as its system SH-SY5Y. The experiment can be described thus: Neuroprotective activity against OGD-induced hypoxic injury in human SH-SY5Y cells assessed as LDH release at 1 uM incubated under oxygen/glucose deprivation-induced hypoxic medium by LDH assay (reference value: 27.47 +/- 3.23 %). The class given is functional.
Experiment [6] deals with Mus musculus. The experiment can be described thus: Anti-vascular cognitive impairment activity against bilateral common carotid artery occlusion-induced vascular dementia C57BL/6J mouse model assessed as improvement in short-term non-spatial working memory by measuring increase in novel object recognition at 25 mg/kg, ip administered post surgery measured after 1 month by novel object recognition test. The class given is functional, organism-based.

For experiment [7], the system named is Mus musculus. The experiment can be described thus: Anti-vascular cognitive impairment activity against bilateral common carotid artery occlusion-induced vascular dementia C57BL/6J mouse model assessed as improvement in short-term non-spatial working memory by measuring increase in novel object recognition at 25 mg/kg, ip administered post surgery measured after 3 months by novel object recognition test. Format: functional, organism-based.

In experiment [8] the test system is Mus musculus. The experiment can be described thus: Anti-vascular cognitive impairment activity against bilateral common carotid artery occlusion-induced vascular dementia C57BL/6J mouse model assessed as reversal of hippocampal atrophy by measuring increase in ratio of size of hippocampus to lateral ventricle at 25 mg/kg, ip administered post surgery measured after 3 months by 7T-MRI analysis. Format: functional, organism-based.

Experiment [9] deals with Mus musculus. Put plainly: Anti-vascular cognitive impairment activity against bilateral common carotid artery occlusion-induced vascular dementia C57BL/6J mouse model assessed as ratio of cerebral blood flow in right parietal area at 25 mg/kg, ip administered post surgery measured after 3 months (reference value: 0.761 +/- 0.037). Format: functional.
The subject of experiment [10] is Mus musculus. Put plainly: Anti-vascular cognitive impairment activity against bilateral common carotid artery occlusion-induced vascular dementia C57BL/6J mouse model assessed as ratio of cerebral blood flow in left parietal area at 25 mg/kg, ip administered post surgery measured after 3 months(reference value: 0.792 +/- 0.029). The class given is functional.
Experiment [11] deals with Mus musculus. Put plainly: Upregulation of acetylated H3K14 protein expression in hippocampus of bilateral common carotid artery occlusion-induced vascular dementia C57BL/6J mouse model at 25 mg/kg, ip measured after 3 months by Western blot analysis. The class given is functional, organism-based.
Experiment [12] concerns Mus musculus. The experiment can be described thus: Anti-vascular cognitive impairment activity against bilateral common carotid artery occlusion-induced vascular dementia C57BL/6J mouse model assessed as reversal of hippocampal atrophy by measuring increase in hippocampal volume at 25 mg/kg, ip administered post surgery measured after 3 months by 7T-MRI analysis. The class given is functional, organism-based.

The structures appear in SMILES notation. The source made the active and inactive calls. The calls are words filed in the database; no cut-off is given here.

One may read the IC50 as the point on the concentration scale where inhibition reaches its midpoint.

Histone deacetylase 1, sequence (Q13547 whole entry, the tested form may be a part): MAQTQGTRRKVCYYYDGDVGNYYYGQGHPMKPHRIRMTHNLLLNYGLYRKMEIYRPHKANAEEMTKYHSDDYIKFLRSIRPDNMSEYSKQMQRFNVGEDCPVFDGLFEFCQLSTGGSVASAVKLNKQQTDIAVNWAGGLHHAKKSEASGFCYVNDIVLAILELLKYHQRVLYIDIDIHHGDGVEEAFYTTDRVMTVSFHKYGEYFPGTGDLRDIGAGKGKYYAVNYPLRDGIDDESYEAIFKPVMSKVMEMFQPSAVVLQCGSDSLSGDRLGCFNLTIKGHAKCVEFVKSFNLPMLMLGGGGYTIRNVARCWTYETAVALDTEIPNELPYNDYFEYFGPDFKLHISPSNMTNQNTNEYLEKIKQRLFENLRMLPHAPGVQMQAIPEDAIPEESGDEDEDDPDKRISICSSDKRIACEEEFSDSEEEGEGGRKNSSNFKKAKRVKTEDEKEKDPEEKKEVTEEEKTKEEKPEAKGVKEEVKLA
Histone deacetylase 2, sequence (Q92769 whole entry, the tested form may be a part): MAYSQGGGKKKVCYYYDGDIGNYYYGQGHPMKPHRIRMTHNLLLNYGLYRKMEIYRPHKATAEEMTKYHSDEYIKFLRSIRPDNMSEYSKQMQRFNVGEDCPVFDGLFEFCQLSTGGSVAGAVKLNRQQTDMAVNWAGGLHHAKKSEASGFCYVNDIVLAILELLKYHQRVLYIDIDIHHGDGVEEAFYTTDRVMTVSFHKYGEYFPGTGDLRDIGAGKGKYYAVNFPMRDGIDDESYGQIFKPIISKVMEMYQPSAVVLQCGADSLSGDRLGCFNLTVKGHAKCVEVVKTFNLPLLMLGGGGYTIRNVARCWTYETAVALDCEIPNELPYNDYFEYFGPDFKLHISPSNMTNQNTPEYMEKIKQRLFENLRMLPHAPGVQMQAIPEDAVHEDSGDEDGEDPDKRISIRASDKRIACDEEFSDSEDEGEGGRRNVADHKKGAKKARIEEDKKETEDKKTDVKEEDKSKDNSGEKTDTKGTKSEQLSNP

Take `O=C(/C=C/c1ccc(S(=O)(=O)NCCCN2c3ccccc3CCc3ccc(Cl)cc32)cc1)NO`: the half-inhibitory concentration (IC50) result at Histone deacetylase 2 (sf21) was “Not Active”; on Histone deacetylase 8 it was 874 nM; in experiment [1], 762 nM; on Histone deacetylase 1 (read-out: IC50) it was greater than 10 µM.
As for `O=C(CCCCCCCC(=O)NCCCN1c2ccccc2CCc2ccc(Cl)cc21)NO`, the IC50 stood at 2.74 µM at Histone deacetylase 2 (read-out: IC50), 1070 nM on Histone deacetylase 8, 144 nM in experiment [1] and 3.4 µM on Histone deacetylase 1 (read-out: IC50). Also, the figures for the Activity in the experiment on SH-SY5Y [2] and in the experiment on SH-SY5Y [3] were 100.96% and 76.55%, respectively.
Consider `O=C(CCCC(=O)NCCCN1c2ccccc2CCc2ccc(Cl)cc21)NO`, for which the half-inhibitory concentration (IC50) is 5.96 µM on Histone deacetylase 2 (read-out: IC50), 1850 nM at Histone deacetylase 8, 1440 nM in experiment [1] and 5.1 µM on Histone deacetylase 1 (read-out: IC50). For the same molecule, the result in the experiment with SH-SY5Y [4] was inactive.
For the molecule `O=C(CCCCCCCCC(=O)NCCCN1c2ccccc2CCc2ccc(Cl)cc21)NO`, the IC50 was 3.03 µM at Histone deacetylase 2 (read-out: IC50), 864 nM on Histone deacetylase 8, 142 nM in experiment [1] and 5.45 µM at Histone deacetylase 1 (read-out: IC50). The figures for the Activity in the experiment on SH-SY5Y [2] and in the experiment on SH-SY5Y [3] were 84.35% and 65.87%, respectively.
Regarding `O=C(CCC(=O)NCCCN1c2ccccc2CCc2ccc(Cl)cc21)NO`, the half-maximal inhibitory concentration (IC50) result at Histone deacetylase 2 (sf21) was “Not Active”; at Histone deacetylase 8, greater than 10000 nM; in experiment [1], greater than 10000 nM; on Histone deacetylase 1 (sf21), “Not Active”. The outcome in the experiment with SH-SY5Y [4] was inactive.
As for `CN(C)CCCN1c2ccccc2CCc2ccc(Cl)cc21`, the outcome in the experiment on SH-SY5Y [4] was inactive.
As for `O=C(CCCCCC(=O)NCCCN1c2ccccc2CCc2ccc(Cl)cc21)NO`, the 50% inhibitory concentration (IC50) is 3.96 µM on Histone deacetylase 2 (read-out: IC50), 345 nM on Histone deacetylase 8, 61.6 nM in [1] and 2.14 µM at Histone deacetylase 1 (read-out: IC50). Besides, the Activity in the experiment with SH-SY5Y [2] is reported as 86.54%; with SH-SY5Y [3] it was 92.47%.
Turning to `O=C(CCCCCCC(=O)NCCCN1c2ccccc2CCc2ccc(Cl)cc21)NO`, the concentration for half-maximal inhibition (IC50) entry at Histone deacetylase 2 (sf21) is “Not Active”; at Histone deacetylase 8, 2330 nM; in experiment [1], 658 nM; at Histone deacetylase 1 (sf21) it was “Not Active”. In addition, the Activity in the experiment with SH-SY5Y [2] was found to be 74.3%; with SH-SY5Y [5], 43.16%; with SH-SY5Y [3], 97.21%.
As for `O=C(/C=C/c1cccc(S(=O)(=O)NCCCN2c3ccccc3CCc3ccc(Cl)cc32)c1)NO`, the half-inhibitory concentration (IC50) stood at 8.48 µM on Histone deacetylase 2 (read-out: IC50), 2160 nM at Histone deacetylase 8, 821 nM in experiment [1] and 6.05 µM at Histone deacetylase 1 (read-out: IC50).
On to `O=C(CCCCC(=O)NCCCN1c2ccccc2CCc2ccc(Cl)cc21)NO`, for which the IC50 is 9.62 µM on Histone deacetylase 2 (read-out: IC50), 3090 nM at Histone deacetylase 8, 2070 nM in [1] and 6.8 µM on Histone deacetylase 1 (read-out: IC50). The outcome with SH-SY5Y [4] was inactive.
As to `O=C(NO)c1ccc(CNCCCN2c3ccccc3CCc3ccc(Cl)cc32)cc1`, the IC50 result at Histone deacetylase 2 (sf21) was “Not Active”; at Histone deacetylase 8, 1510 nM; in [1], 2610 nM; on Histone deacetylase 1 (sf21), “Not Active”. Further, the result in the experiment on SH-SY5Y [4] was inactive.
Regarding `O=C(NO)c1ccc(C(=O)NCCCN2c3ccccc3CCc3ccc(Cl)cc32)cc1`, the IC50 was determined as 8.62 µM at Histone deacetylase 2 (read-out: IC50), 1780 nM at Histone deacetylase 8, 448 nM in experiment [1] and 7.28 µM on Histone deacetylase 1 (read-out: IC50). The Activity in the experiment on SH-SY5Y [3] was 30.74%.
With `O=C(CCCCCCC(=O)Nc1ccccc1)NO` [VORINOSTAT], the result with Mus musculus [6] was Active. Also, the result in the experiment with Mus musculus [7], with Mus musculus [8], in the experiment on Mus musculus [11] and in the experiment on Mus musculus [12] was inactive. Moreover, the Ratio came out at 0.83 with Mus musculus [9] and 0.878 in the experiment with Mus musculus [10].
